The record followed here is PubChem BioAssay AID179 (DTP/NCI, 2004).

The experiment relates to CEM cells HIV-1 protection, formazan growth assay. As to the kind of experiment: NCI AIDS Antiviral Assay. Particulars: for IC50: measured here: growth of uninfected CEM cells. The procedure, abridged: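 Human CEM cells, uninfected and HIV-1-infected, received five drug concentrations, and growth was read by soluble formazan assay. Compounds giving at least 50% protection were retested; reproducible 100% protection defined confirmed active.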

The source made the active and inactive calls.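 Rule for the calls: active = compounds giving half or more protection of infected cells from virus-caused growth loss, again on retest; inactive = the rest.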 Bounds are passed on as bounds.

For `Cc1ccc(-c2c(C#N)c(S)n(NS(=O)(=O)c3ccc(C)cc3)c(=O)c2C#N)cc1`, the EC50 was over 200 µM and the IC50 is 11.7 µM.

Take `COc1cc(N=Nc2ccccc2)c2nccc(C)c2c1N`: the outcome was inactive. In the case of `N#Cc1nc(-c2ccc(-c3nc(C#N)c(N)o3)cc2)oc1N`, the EC50 is over 200 µM and the half-maximal inhibitory concentration (IC50) is over 200 µM.

`CC(=O)O[C@H]1CC[C@H]2[C@@H]3CCC(C(C)=O)[C@H](C(=O)O)[C@H]3CC[C@]12C` (some centres not stated): the EC50 is over 200 µM and the IC50 is over 200 µM.

As to `O=C1CN2C(Cl)(Cl)C2(c2ccccc2)c2cc(Cl)ccc2N1CC1CC1` (configuration not stated), the EC50 was over 200 µM and the half-inhibitory concentration (IC50) came out at 11.7 µM. The corresponding values for `CCOCc1ccccc1C1(O)c2ccccc2Oc2ccccc21` are over 200 µM and 186 µM. The corresponding values for `CC1(C)C(N2CCOCC2)CS1(=O)=O` (configuration not stated) are over 200 µM and over 200 µM. Taken in the same sequence, the figures for `CCC1(O)C(=O)c2ccccc2N(c2ccccc2)C1=O` (configuration not stated) were over 200 µM and over 200 µM. As to `COC(=O)C1(C(C)C)CCc2c(OC)ccc(OC)c2C1=O` (configuration not stated), the outcome was inactive.

As for `CCCCN(CCCC)CCCCCCCN1CCCc2cc(OC)ccc21`, the EC50 is over 200 µM and the IC50 was found to be 17.8 µM.

For the compound `C[C@H](NC(=O)CNC(=O)CCCCCC(=O)NCC(=O)N[C@@H](C)C(=O)OCc1ccccc1)C(=O)OCc1ccccc1`, the EC50 was over 200 µM and the IC50 was over 100 µM. Taken in the same sequence, the figures for `CCOC(=O)NC(S(=O)(=O)O)S(=O)(=O)O` were over 200 µM and over 200 µM.

Consider `COC(=O)CC1NC(=O)C1C1(C)OCCO1` (configuration not stated), for which the EC50 is over 251 µM and the half-inhibitory concentration (IC50) was over 251 µM. For the compound `N#Cc1c(NC(=O)CN2CCOCC2)c(C(=O)Nc2ccccc2)n2c1CCC2`, the EC50 is over 200 µM and the IC50 was over 200 µM. As to `N[C@@H](CCC(=O)NCP(=O)(O)O)C(=O)O`, the EC50 is over 200 µM and the concentration for half-maximal inhibition (IC50) was over 200 µM. Turning to `O=C(Cc1nc2ccccc2[nH]1)N/N=C1\SCC(=O)N1c1ccc(Cl)cc1`, the EC50 is over 182 µM and the IC50 was over 182 µM. On to `CC1(C)OC(=S)N(c2ccccc2)C12C=Cc1cc3ccccc3cc1O2` (configuration not stated), for which the EC50 is over 200 µM and the concentration for half-maximal inhibition (IC50) was 79.4 µM. As to `COc1cccc(C2c3cc4c(cc3OC(NNC(N)=O)C2C)OCO4)c1OC` (configuration not stated), the EC50 is over 200 µM and the half-inhibitory concentration (IC50) is 8.13 µM.

For the compound `CCCNC(=O)N1CC(CN2CCN(c3ccccc3)CC2)O/C1=N/C(=O)Nc1ccccc1` (configuration not stated), the EC50 is over 200 µM and the 50% inhibitory concentration (IC50) is 77.6 µM.

Regarding `Cc1cc(NS(=O)(=O)c2ccc(NC(=O)c3cccc4c(=O)c5ccccc5[nH]c34)cc2)no1`, the result was inactive. Regarding `CC1(CO)C(O)CCC2(C)C1C(O)CC1CC3CC12CCC3(O)CO` (configuration not stated), the EC50 is over 708 µM and the IC50 came to 138 µM. Turning to `C/C(NNC(=O)c1ccccc1O)=C1\C=Nc2ccccc2S1`, the EC50 was over 15.8 µM and the IC50 was 0.0794 µM.

Regarding `CCOC(=O)c1ccn2c(c1)c(C#N)c1nc3ccccc3nc12`, the EC50 was over 16.6 µM and the IC50 was over 16.6 µM.

For `Cc1cn(C2CC(N=[N+]=[N-])C(COC(=O)CCCCCCCCCCCBr)O2)c(=O)[nH]c1=O` (configuration not stated), the result was active and the IC50 is 37.2 µM. As for `C=CCCCCCCCCC(=O)NC(C)C(C)(C)C` (configuration not stated), the EC50 was over 200 µM and the IC50 stood at 74.1 µM. `O=C(OCc1ccccc1)C(Cc1ccc(OCc2ccccc2)cn1)NC(=O)C(F)(F)F` (configuration not stated): the EC50 was over 200 µM and the IC50 worked out at 33.1 µM. Taken in the same sequence, the figures for `CC/C=C1\N=C(c2ccc(Cl)cc2)OC1=O` were over 151 µM and 126 µM. Regarding `CC(C)(C)OC(=O)N1C(=O)C2CCCC21` (configuration not stated), the EC50 is over 200 µM and the IC50 was over 200 µM. As to `CCNC(=O)c1ccc(C)c(N=NN(C)C)c1`, the EC50 is over 288 µM and the IC50 was over 288 µM. As to `CCOC(=O)/C(=C\c1ccc([N+](=O)[O-])cc1)P(=O)(OCC)OCC`, the EC50 was over 20.4 µM and the 50% inhibitory concentration (IC50) worked out at 10.2 µM.

Consider `COc1ccc2c(c1)CC1=C(O2)c2ccc(OC)cc2OC1`, for which the EC50 is over 200 µM and the IC50 turned out to be 10.2 µM. Regarding `Clc1ccc(C2=CC(c3ccccc3)N3C(=N[C@H]4CCCC[C@@H]43)N2)cc1` (some centres not stated), the EC50 was over 100 µM and the concentration for half-maximal inhibition (IC50) is 4.68 µM. As to `O=c1c2cccc3cccc(c4n1CCN=4)c32`, the EC50 was over 200 µM and the half-inhibitory concentration (IC50) was determined as 20.9 µM. Consider `Cc1csc2nc(-c3ccccc3)c(/C=N/NC(=O)CN(C)C)n12`, for which the result was inactive. The same measure, in the same setting: the same measure for `O=C1NC2(CCCCC2)C2CCCCC=C12` (configuration not stated): “inactive”.

`O=C1C2C3CC4C5C3C1C5C1(SCCS1)C42` (configuration not stated): the result was inactive. On to `C=CCNC(=O)N(CCC)CCCC(NC(C)=O)C(=O)NCc1ccccc1` (configuration not stated), for which the EC50 is over 646 µM and the IC50 is over 646 µM. Consider `O=C(Nc1ccc([N+](=O)[O-])cc1[N+](=O)[O-])C(=O)C(C(=O)c1ccc2ccccc2c1)C1OC(=O)c2ccccc21` (configuration not stated), for which the EC50 is over 66.1 µM and the IC50 stood at 19.5 µM. With `Cc1ccc(/C=N/n2c(-c3ccc(C)cc3)n[nH]c2=O)cc1`, the EC50 was over 200 µM and the half-inhibitory concentration (IC50) is over 200 µM.

As for `COC(=O)CN(CC(=O)NCCNC(=O)OC(C)(C)C)C1CCCCC1N(CC(=O)OC)CC(=O)OC` (configuration not stated), the EC50 was over 200 µM and the IC50 is over 200 µM.

Take `Cn1c(=O)cc(NCc2ccc(Cl)cc2)[nH]c1=O`: the EC50 was over 200 µM and the half-maximal inhibitory concentration (IC50) was found to be 195 µM.

As to `O=S1(=O)OCCOS(=O)(=O)C1Cc1ccccc1`, the EC50 is over 447 µM and the 50% inhibitory concentration (IC50) was 50.1 µM. In the case of `CC1(C)C(=O)C(C(Cl)(Cl)Cl)=C(Cl)C(=O)C1(Cl)Cl`, the EC50 was over 200 µM and the IC50 is 25.7 µM. The corresponding values for `O=C(Nc1ccc(C2=NCCCN2)cc1)c1ccc(NC(=O)c2ccc(C3=NCCCN3)cc2)cc1` are over 200 µM and 67.6 µM.

In the case of `CC1(C)CCC(C)(C)C1C(=O)NC(O)C(=O)O` (configuration not stated), the EC50 was over 200 µM and the concentration for half-maximal inhibition (IC50) is over 200 µM. As for `CC1(C)NC(=O)[C@]2(C[C@@H](O)C=C2CO)O1`, the EC50 is over 200 µM and the IC50 is over 200 µM. For the compound `O=C(Nc1ccccc1[N+](=O)[O-])/C(=N/Nc1cccc(Cl)c1)c1c(O)c2ccccc2oc1=O`, the EC50 was over 53.7 µM and the IC50 is over 53.7 µM. With `Cc1ccc(S)c(C(O)(C(F)(F)F)C(F)(F)F)c1`, the EC50 is over 200 µM and the half-maximal inhibitory concentration (IC50) was 12 µM. `COc1ccc(-c2coc3cc(O)ccc3c2=O)c(O)c1OC`: the EC50 was over 200 µM and the 50% inhibitory concentration (IC50) turned out to be 14.8 µM. Taken in the same sequence, the figures for `Fc1cccc(Cl)c1C1SCc2nc3cc4ccccc4cc3n21` (configuration not stated) were over 200 µM and 158 µM. Take `Cc1ccc(O)c(OC2OC(C(=O)O)C(O)C(O)C2O)c1` (configuration not stated): the EC50 is over 832 µM and the half-inhibitory concentration (IC50) is over 832 µM.

Take `CCN(CC)c1ccc2c(c1)Nc1cc(=C(C#N)C#N)c3ccccc3c1=N2`: the EC50 was over 19.5 µM and the IC50 was over 19.5 µM.

Regarding `CC(C#N)NCc1ccc(C(C)NC(C)C#N)cc1` (configuration not stated), the EC50 was over 200 µM and the IC50 is over 200 µM. In the case of `Nc1ncnc2c1Sc1nc(Cl)ccc1N2`, the EC50 is over 14.8 µM and the IC50 was over 14.8 µM.
